Test results published in US20090203773A1, “Compounds for the Treatment of Non-Autoimmune Type 2 Diabetes Mellitus and/or Syndrome X” (priority 2005, published 2009).

Tests used:
[1] = tested on: C3H10T1/2 cells; assay: Differentiation of adipocytes (oil Red O staining); type: cell-based; settings: for Adipocyte differentiation, oil Red O, Mean OD ± SEM: 10-day treatment, absorbance at 540 nm; for Differentiation of the cells into adipocytes, result in words: co-treatment with insulin, compared with insulin alone
Experimental: C3H10T1/2 cells were grown to confluence as described in Example 1, then treated for 10 days with insulin alone (negative control) or with a mixture of insulin and the compound of the formula I-13 at different concentrations (see Table 2), with re-feeding with fresh medium and compounds every 48-h. After 10-days of treatment, the cells were stained with oil Red O as follows: cells were washed 2× in PBS and fixed in 10% formalin at room temperature for 1 h. After removal of formalin, 200 μl of oil Red O staining solution (3:2 mixture of 0.5% w/v oil Red O stock solution and water) was applied to each well. The cells were incubated for 20 min at room temperature, washed twice in 2×PBS and incubated for 10 min with 300 μl of isopropanol/well for oil Red O extraction. Quantification of oil Red O was determined by measuring absorbance at 540 nm (mean OD). […] C3H10T1/2 cells were grown and treated as described in Example 4 with the exception that the compound of the formula I-14 was used instead of the compound of the formula I-13. The measurement of adipocyte differentiation using the oil Red O assay was performed as described in Example 4. […] C3H10T1/2 cells were grown and treated as described in Example 4 with the exception that the compound of the formula I-15 was used instead of the compound of the formula I-13. The measurement of adipocyte differentiation using the oil Red O assay was performed as described in Example 4.

[2] = tested on: C3H10T1/2 cells; assay: Glucose uptake of adipocytes (radioactive 2-deoxyglucose, basal, without insulin); type: cell-based; settings: 48-h treatment; for Basal glucose uptake (% of control ± SEM): absence of insulin, DMSO control = 100%; for Basal glucose uptake, result in words: different concentrations
Experimental: C3H10T1/2 cells (ATCC CCL-226) were grown for 5 days to confluence in DMEM supplemented with 10% FBS medium and induced with a mixture of insulin, dexamethasone and 3-isobutyl-1-methylxanthine to differentiate into adipocytes. Nine days after the beginning of induction, cells were treated for 48-h with the compound of the formula I-13 at different concentrations as shown in Table 1. Glucose uptake was determined using radioactive 2-deoxyglucose (10 μM 2-DG in HBS+0.5 μCi/ml of 3[H]-2-DG), measuring glucose uptake in the absence of insulin. Basal glucose uptake was increased by 48-h treatment with the compound of the formula I-13 in a dose-dependent manner (Table 1). Growing, induction and treatment of C3H10T1/2 cells were exactly as described in Example 1, with the exception that the compound of the formula I-15 at different concentrations was used instead of the compound of the formula I-13. […] Control: C3H10T1/2 cells treated for 48 h with DMSO at the same concentration as compound-treated cells and set at 100%

[3] = tested on: C57BLKS/J db/db mice; assay: Glucose tolerance / blood glucose in a 14-day db/db mouse study (OGTT); type: in vivo
Experimental: The efficacy of the compound of the formula I-13 on glucose tolerance was tested in a 14-day study in C57BLKS/J db/db mice (n=10/group), a model of late type 2 diabetes mellitus with severe hyperglycemia.
Male db/db mice were obtained from Jackson Laboratory (Bar Harbor, Me., USA). Adult mice aged 8 weeks were used in the experiment. Mice were housed individually in plastic cages with bedding and allowed free access to standard rodent food and tap water. The animal rooms were controlled for temperature (24° C.), humidity (55%), and light (12-h light-dark cycle). The animals were randomized in two groups and the compound of the formula I-13 was administered orally to one of the groups for 14 days at a dose of 200 mg/kg BW/day. After 14 days of treatment the concentration of glucose was determined in blood from fed animals, i.e., animals which were not restricted from food. After a period of 10 days of treatment an oral glucose tolerance test (OGTT) was performed. For the OGTT mice were fasted overnight and then a 1-g glucose/kg BW solution was orally administered. Blood samples were taken before and 15, 30, 45, 60, 90, 120, 150, 180 min after the glucose challenge for determination of blood glucose levels and then the area under the curve (AUC) was determined. Blood glucose was measured by a glucose analyzer (Glucotrend Premium, Roche Diagnostics, Rotkreuz, Switzerland). The glucose and the free fatty acid (FFA) levels of fed animals (see above) were lowered after 14 days of treatment with the compound of the formula I-13. After 10 days of treatment with the compound of the formula I-13 the glucose levels of fasted animals, i.e., animals with an overnight fasting (see above) were decreased as compared to the untreated control group.

[4] = Insulin 1 × 10^−7 M + compound 1 × 10^−5 M
[5] = 200 mg/kg BW/day orally, after 14 days, fed animals

Compound | Adipocyte differentiation, oil Red O, Mean OD ± SEM [1, 4] | Differentiation of the cells into adipocytes, result in words [1] | Basal glucose uptake (% of control ± SEM) ([2]; 1 × 10^−5 M) | Basal glucose uptake (% of control ± SEM) ([2]; 1 × 10^−6 M) | Basal glucose uptake, result in words [2] | Basal glucose uptake (% of control ± SEM) ([2]; 5 × 10^−5 M) | also measured
COc1ccc(C(=O)/C=C/c2c(CCN(C)C(C)=O)cc3c(c2OC)OCO3)cc1 [I-13] | 0.69 ± 0.019 | higher differentiation | 94.58 ± 0.95 % of control | 97.6 ± 22.9 % of control | increased | – | Basal glucose uptake (% of control ± SEM) ([2]; 2.4 × 10^−5 M): 128.6 ± 0.89 % of control; Basal glucose uptake (% of control ± SEM) ([2]; 5 × 10^−4 M): 194.058 ± 0.05 % of control; Glucose AUC ([3]; 200 mg/kg BW/day orally, OGTT (1 g glucose/kg BW) on day 10, 0-180 min): 54295; Blood Glucose Fasted ([3]; 200 mg/kg BW/day orally, after 10 days, overnight fasting): 135 mg/dL; Blood Glucose Fed [3, 5]: 771 mg/dL; FFA [3, 5]: 12.38 mg/dL; Glucose AUC of an OGTT, result in words ([3]; 200 mg/kg BW/day, OGTT 1 g glucose/kg body weight on day 10): significantly reduced; Glucose levels of fasted animals, result in words ([3]; 200 mg/kg BW/day, after 10 days, compared to untreated control group): decreased; Glucose and free fatty acid (FFA) levels of fed animals, result in words ([3]; 200 mg/kg BW/day, after 14 days): lowered; Blood glucose levels during the OGTT, result in words ([3]; 200 mg/kg BW/day, day 10, compared with control group): lower at all time points
Insulin | – | – | – | – | – | – | Adipocyte differentiation, oil Red O, Mean OD ± SEM ([1]; Insulin 1 × 10^−7 M alone (negative control)): 0.28 ± 0.03
COc1ccc(/C=C/C(=O)c2ccc(OC(=O)c3ccccc3)cc2)cc1OC [I-15] | 0.53 ± 0.025 | higher differentiation | 133.28 ± 23.4 % of control | 105.37 ± 2.21 % of control | increase | 116.17 ± 15.96 % of control | Adipocyte differentiation, oil Red O, Mean OD ± SEM ([1]; Insulin 1 × 10^−7 M + compound 2 × 10^−4 M): 0.34 ± 0.087; Adipocyte differentiation, oil Red O, Mean OD ± SEM ([1]; Insulin 1 × 10^−7 M + compound 5 × 10^−5 M): 0.53 ± 0.017; Basal glucose uptake (% of control ± SEM) ([2]; 2 × 10^−4 M): 142.84 ± 18.05 % of control
COc1ccc(C(=O)C=Cc2cccc(OC(=O)C=Cc3ccccc3)c2)cc1 [I-14] | 0.45 ± 0.037 | higher differentiation | – | – | – | – | –
CC1(COc2ccc(CC3SC(=O)NC3=O)cc2)CCCCC1 (stereo not shown) [Ciglitazone, reference compound] | – | – | – | – | – | 496.178 ± 61.86 % of control | –
